Test results reported in patent publication US6924297B2, “Naphathalene derivatives which bind to the EP4 receptor” (SmithKline Beecham Corporation, priority 2000, dated 2005).

Each molecule was assayed against T1, human EP4 receptor (Homo sapiens, UniProt P35408) (assay: Human EP4 Scintillation Proximity Assay (radioligand binding)). Conditions: membranes of CHO cells expressing human EP4 receptor; [3H]-prostaglandin E2 radioligand; pKi from IC50 by Cheng-Prusoff; read-out: pKI at EP4 receptors (converted).
T1 construct: expressed in transfected cells; host or cells: Chinese Hamster Ovary (CHO) cells infected with recombinant Semliki Forest Virus (SFV-1) particles; membranes prepared from these cells
Procedure: Quantification of radioligand binding by scintillation proximity assay (SPA) is a long-established principle. Briefly, the affinity of compounds for a receptor is assessed by the specific competition between known quantities of radiolabelled ligand and compound for that receptor. Increasing concentrations of compound reduce the amount of radiolabel that binds to the receptor. This gives rise to a diminishing scintillation signal from SPA beads coated with membranes that bear the receptor. The signal may be detected with a suitable scintillation counter and the data generated may be analysed with suitable curve-fitting software.
The human EP4 SPA assay (hereafter referred to as ‘the assay’) utilises membranes prepared from Chinese Hamster Ovary (CHO cells) infected with Semliki Forest Virus (SFV). Genetically engineered SFV-1 viral particles containing the genetic sequence of the human EP4 receptor were used to infect CHO cells resulting in expression of the receptor protein in cellular membranes. Cells washed free of media are homogenised in a pH-buffered medium containing peptidase inhibitors. A suitable buffer is of the following composition: 50 mM HEPES, 1 mM EDTA, 25 μg/ml bacitracin, 100 μM leupeptin, 1 mM PMSF, 2 μM Pepstatin A, pH adjusted to 7.4 with KOH. Following removal of cell debris by a low-speed centrifugation, a pellet of membranes is prepared by a high-speed (48000 g) centrifugation of the resulting supernatant. Membrane suspensions such as that described may be stored at −80° C. until used.
For assay, membranes expressing human EP4 receptors are diluted in a pH-buffered medium and mixed with SPA beads coated with a suitable substance to facilitate the adhesion of membranes to the beads. The concentrations of membrane protein and SPA beads chosen should result in SPA binding signal of at least 300 corrected counts per minute (CCPM) when tritiated radioligand at a concentration close to its Kd (affinity value) is combined with the mixture. Non-specific binding (nsb) may be determined by competition between the radiolabelled ligand and a saturating concentration of unlabelled ligand. In order to quantify the affinity of EP4 receptor ligands, compounds are diluted in a stepwise manner across the wells of a 96-well plate. Radioligand, compound, and unlabelled ligand are then added to a 96-well plate suitable for the measurement of SPA binding signals prior to the addition of bead/membrane mixture to initiate the binding reaction. Equilibrium may be achieved by incubation at room temperature for 120 minutes prior to scintillation counting. The data so generated may be analysed by means of a computerised curve-fitting routine in order to quantify the concentration of compound that displaces 50% of the specific radioligand binding (IC50). The affinity (pKi) of the compound may be calculated from the IC50 by application of the Cheng-Prusoff correction. Suitable reagents and protocols are: reaction buffer containing 50 mM HEPES, 10 mM MgCl2, pH adjusted to 7.4 with KOH; SPA beads coated with wheatgerm agglutinin; 1.25 nM [^3H]-prostaglandin E2 as radioligand; 10 μM prostaglandin E2 as unlabelled ligand; a three-fold dilution series of compound starting at 10 μM and ending at 0.3 nM is adequate.

T1 sequence (P35408 whole entry): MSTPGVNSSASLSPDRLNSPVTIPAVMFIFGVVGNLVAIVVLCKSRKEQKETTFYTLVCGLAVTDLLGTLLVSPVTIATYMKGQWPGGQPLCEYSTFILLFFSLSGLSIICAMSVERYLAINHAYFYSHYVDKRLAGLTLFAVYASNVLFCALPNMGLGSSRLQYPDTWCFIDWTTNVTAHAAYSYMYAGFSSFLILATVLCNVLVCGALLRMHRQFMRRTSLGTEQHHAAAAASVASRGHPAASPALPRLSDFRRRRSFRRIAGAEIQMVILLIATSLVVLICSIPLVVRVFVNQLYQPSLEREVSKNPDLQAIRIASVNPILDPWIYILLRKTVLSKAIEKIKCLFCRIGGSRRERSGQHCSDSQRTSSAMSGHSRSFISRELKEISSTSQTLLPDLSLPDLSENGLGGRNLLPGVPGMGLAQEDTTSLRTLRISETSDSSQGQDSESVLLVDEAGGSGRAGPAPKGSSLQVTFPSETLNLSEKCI

Ki [µM]	SMILES
≤ 0.1	CCOc1c2c(c(OCC)c3ccccc13)C(=O)N(c1ccc(CS(=O)(=O)NC(=O)Cc3ccc(C)c(F)c3)cc1)C2=O [Example 74]
≤ 0.1	CCOc1c2c(c(OCC)c3ccccc13)C(=O)N(c1ccc(CS(=O)(=O)NC(=O)Cc3cccc(F)c3)cc1)C2=O [Example 65]
≤ 0.1	CCOc1c2c(c(OCC)c3ccccc13)C(=O)N(c1ccc(CS(=O)(=O)NC(=O)Cc3ccccc3C)cc1)C2=O [Example 61]
≤ 0.1	CCOc1c2c(c(OCC)c3ccccc13)C(=O)N(c1ccc(CS(=O)(=O)NC(=O)Cc3ccc(C(C)C)cc3)cc1)C2 [Example 27]
≤ 0.1	CCOc1c2c(c(OCC)c3ccccc13)C(=O)N(c1ccc(CS(=O)(=O)NC(=O)Cc3ccc(C)cc3)cc1)C2=O [Example 67, 1-[4-(4,9-diethoxy-1,3-dioxo-1,3-dihydro-2H-benzo[f]isoindol-2-yl)phenyl]-N-[(4-methylphenyl)acetyl]methanesulfonamide]
≤ 0.1	CCOc1c2c(c(OCC)c3ccccc13)C(=O)N(c1ccc(CS(=O)(=O)NC(=O)C(C)(C)c3ccccc3)cc1)C2 [Example 22]
≤ 0.1	CCOc1c2c(c(OCC)c3ccccc13)C(=O)N(c1ccc(CS(=O)(=O)NC(=O)Cc3ccc(OC)c(OC)c3)cc1)C2=O [Example 66, 1-[4-(4,9-diethoxy-1,3-dioxo-1,3-dihydro-2H-benzo[f]isoindol-2-yl)phenyl]-N-[(3,4-dimethoxyphenyl)acetyl]methanesulfonamide]
≤ 0.1	CCOc1c2c(c(OCC)c3ccccc13)C(=O)N(c1ccc(CS(=O)(=O)NC(=O)C(C)(C)c3cccc(C)c3)cc1)C2=O [Example 73]
≤ 0.1	CCOc1c2c(c(OCC)c3ccccc13)C(=O)N(c1ccc(CS(=O)(=O)NC(=O)Cc3ccccc3OC)cc1)C2 [Example 31, 1-[4-(4,9-diethoxy-1-oxo-1,3-dihydro-2H-benzo[f]isoindol-2-yl)phenyl]-N-[(2-methoxyphenyl)acetyl]methanesulfonamide]
≤ 0.1	CCOc1c2c(c(OCC)c3ccccc13)C(=O)N(c1ccc(CS(=O)(=O)NC(=O)Cc3cc(OC)ccc3OC)cc1)C2 [Example 36]
